Measured values reported in patent publication US8198290B2, “Methoxatin derivatives” (Berry and Associates, Inc., priority 2009, dated 2012).
Several values for one entry are separate records, joined by “and”; a condition that tells them apart may be missing. Equal entries are not always repeated.

Target: T1, soluble glucose dehydrogenase (GDH) (Acinetobacter calcoaceticus, UniProt P13650)
T1 sequence (P13650 25-478): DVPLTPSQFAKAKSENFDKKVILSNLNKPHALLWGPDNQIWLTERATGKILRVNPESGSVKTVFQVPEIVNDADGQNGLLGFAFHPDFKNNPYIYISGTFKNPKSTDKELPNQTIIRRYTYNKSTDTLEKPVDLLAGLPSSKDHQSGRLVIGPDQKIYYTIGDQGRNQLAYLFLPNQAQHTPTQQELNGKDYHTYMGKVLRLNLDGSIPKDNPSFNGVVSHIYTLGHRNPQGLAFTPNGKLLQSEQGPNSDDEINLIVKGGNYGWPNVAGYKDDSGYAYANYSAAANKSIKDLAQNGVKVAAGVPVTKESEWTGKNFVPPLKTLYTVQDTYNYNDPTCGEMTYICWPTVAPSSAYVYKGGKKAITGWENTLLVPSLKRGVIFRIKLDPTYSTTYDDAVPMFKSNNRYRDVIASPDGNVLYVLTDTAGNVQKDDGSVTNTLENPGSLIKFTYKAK
Assay: GDH assay: coenzyme activity relative to native methoxatin
Assay type: biochemical
Parameters: concentration or dose not given beside the values
Settings: coenzyme activity expressed as a percentage of the methoxatin sample
Procedure: The coenzyme activity of several compounds relative to native methoxatin was determined with a published assay that utilizes soluble glucose dehydrogenase (GDH) from Acinetobactercalcoaceticus. (Misset-Smits et al., Methods in Enzymol., 280, 89-98 (1997)).

| Relative Activity in GDH Assay | Compound |
| --- | --- |
| 40% and 45% | C=CCCCONC(=O)c1cc(C(=O)O)c2c(n1)C(=O)C(=O)c1cc(C(=O)O)[nH]c1-2 [Compound 5, 4,5-Dioxo-7-((pent-4-en-1-yloxy)carbamoyl)-4,5-dihydro-1H-pyrrolo[2,3-f]quinoline-2,9-dicarboxylic acid] |
| 45% and 40% | [N-]=[N+]=NCCOCCOCCOCCONC(=O)c1cc(C(=O)O)c2c(n1)C(=O)C(=O)c1cc(C(=O)O)[nH]c1-2 [Compound 7, 7-(((11-Azido-3,6,9-trioxaundecyl)oxy)carbamoyl)-4,5-dioxo-4,5-dihydro-1H-pyrrolo[2,3-f]quinoline-2,9-dicarboxylic acid] |
| 6% | O=C(/C=C/c1cn([C@H]2C[C@H](O)[C@@H](CO)O2)c(=O)[nH]c1=O)NCCCCCCNC(=O)c1ccc(C(=O)NCCOCCOCCOCCONC(=O)c2cc(C(=O)O)c3c(n2)C(=O)C(=O)c2cc(C(=O)O)[nH]c2-3)c(P(=O)(c2ccccc2)c2ccccc2)c1 [Compound 15, 7-(((1-(2-(diphenylphosphoryl)-4-((6-((E)-3-(1-((2R,4S,5R)-4-hydroxy-5-(hydroxymethyl)tetrahydrofuran-2-yl)-2,4-dioxo-1,2,3,4-tetrahydropyrimidin-5-yl)acrylamido)hexyl)carbamoyl)phenyl)-1-oxo-5,8,11-trioxa-2-azatridecan-13-yl)oxy)carbamoyl)-4,5-dioxo-4,5-dihydro-1H-pyrrolo[2,3-f]quinoline-2,9-dicarboxylic acid] |

| Compound | Relative Activity in GDH Assay |
| --- | --- |
| O=C(O)c1cc(C(=O)O)c2c(n1)C(=O)C(=O)c1cc(C(=O)O)[nH]c1-2 [Methoxatin] | 100% |
